Laboratory results from the supplement of paper PMC10307832.

Key:
Assay in all cases: relative viability (nuclei count vs DMSO), 5 days (fraction); higher = more cells survive
Idelalisib = compound: CC[C@H](Nc1ncnc2[nH]cnc12)c1nc2cccc(F)c2c(=O)n1-c1ccccc1 [Idelalisib]
Outline: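 On vehicle-anchored 1536-well plates, lung cancer cell lines held overnight at 37 °C were pinned with five library-drug doses (not always all listed) spaced by √10. With no medium change over 5 days, they were then fixed, permeabilised and Hoechst-stained in one step and imaged at 4×. MetaXpress counted nuclei, and viability is the median across plates of treated-well over vehicle-well nuclei. Acceptance needed control CV below 25% and at least one doubling.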

Pemetrexed + Alpelisib = compound: Nc1nc2[nH]cc(CCc3ccc(C(=O)N[C@@H](CCC(=O)O)C(=O)O)cc3)c2c(=O)[nH]1 [Pemetrexed] + Cc1nc(NC(=O)N2CCC[C@H]2C(N)=O)sc1-c1ccnc(C(C)(C)C(F)(F)F)c1 [Alpelisib] (partner 2 µM)
Outline: (§1)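 The day after seeding in 1536-well plates, lung cancer cell lines were treated by pin tool with a single drug, or with a fixed anchor-drug dose together with five library-drug doses (not always all listed) in √10 steps. After 5 days, a combined fix-and-stain solution (final 0.05% Triton X-100, 1% formaldehyde, 1 ug/ml Hoechst) was added. Nuclei counted on 4× images gave relative viability as treated counts over vehicle counts, reported as the median of duplicate plates.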

Pemetrexed + Tozasertib = compound: Nc1nc2[nH]cc(CCc3ccc(C(=O)N[C@@H](CCC(=O)O)C(=O)O)cc3)c2c(=O)[nH]1 [Pemetrexed] + Cc1cc(Nc2cc(N3CCN(C)CC3)nc(Sc3ccc(NC(=O)C4CC4)cc3)n2)n[nH]1 [Tozasertib] (partner 0.1 µM)
Outline: as §1

Idelalisib + OSI-027 = compound: CC[C@H](Nc1ncnc2[nH]cnc12)c1nc2cccc(F)c2c(=O)n1-c1ccccc1 [Idelalisib] + COc1cccc2cc(-c3nc([C@H]4CC[C@H](C(=O)O)CC4)n4ncnc(N)c34)[nH]c12 [OSI-027] (partner 0.5 µM)
Outline: as §1

Cell Line	relative viability (Idelalisib; 0.04 µM)	relative viability (Idelalisib; 0.1265 µM)	relative viability (Idelalisib; 0.4 µM)	relative viability (Idelalisib; 1.265 µM)	relative viability (Idelalisib; 4 µM)	relative viability (Pemetrexed + Alpelisib; first compound 0.002 µM)	relative viability (Pemetrexed + Alpelisib; first compound 0.006325 µM)	relative viability (Pemetrexed + Alpelisib; first compound 0.02 µM)	relative viability (Pemetrexed + Alpelisib; first compound 0.06325 µM)	relative viability (Pemetrexed + Alpelisib; first compound 0.2 µM)	relative viability (Pemetrexed + Tozasertib; first compound 0.002 µM)	relative viability (Pemetrexed + Tozasertib; first compound 0.006325 µM)	relative viability (Pemetrexed + Tozasertib; first compound 0.02 µM)	relative viability (Pemetrexed + Tozasertib; first compound 0.06325 µM)	relative viability (Pemetrexed + Tozasertib; first compound 0.2 µM)	relative viability (Idelalisib + OSI-027; first compound 0.04 µM)	relative viability (Idelalisib + OSI-027; first compound 0.1265 µM)	relative viability (Idelalisib + OSI-027; first compound 0.4 µM)	relative viability (Idelalisib + OSI-027; first compound 1.265 µM)	relative viability (Idelalisib + OSI-027; first compound 4 µM)
LCLC-103H	1.12	0.979	0.822	1.09	0.91	0.971	0.992	1.04	1.01	0.959	0.451	0.366	0.515	0.443	0.443	0.545	0.497	0.368	0.459	0.424
HCC-44	1.04	0.953	0.98	1.08	1.13	0.771	0.732	0.854	0.785	0.602	0.903	0.945	1.15	0.853	0.372	0.474	0.54	0.437	0.604	0.5
RERF-LC-KJ	1.11	0.99	0.955	0.959	0.817	1.12	0.774	0.84	0.868	0.538	0.52	0.477	0.526	0.475	0.325	0.632	0.563	0.436	0.502	0.516
NCI-H1975	1.02	1.04	0.864	0.921	0.737		0.63	0.704	0.535	0.4	0.756	0.752	0.768	0.704	0.297	0.819	0.764	0.61	0.917	0.429
IA-LM	0.975	1.05	1.02	1.23	0.955	0.797	0.716	0.737	0.771	0.67										
LCLC-97TM1	1.17	0.92	0.777	1.09	0.911	0.265	0.2	0.257	0.173	0.237	0.184	0.245	0.315	0.254	0.284	0.649	0.543	0.24	0.554	0.418
NCI-H520	0.958	0.987	0.84	0.922	0.79	0.92	0.828	0.948	0.823	0.697	0.42	0.475	0.447	0.412	0.45	0.287	0.265	0.186	0.206	0.179
A-427	1.14	1.01	0.883	1.01	0.904	1.09	1.1	1.05	1.1	1.04	0.232	0.2	0.213	0.509	0.218	0.443	0.488	0.332	0.503	0.469
ABC-1	0.917	0.938	0.955	0.895	0.961	1.13	0.937	1.28	1.03	0.87	0.163	0.172	0.172	0.191	0.167	0.491	0.495	0.43	0.577	0.409
NCI-H460	0.996	1.01	1.01	1.02	1	0.479	0.344	0.518	0.151	0.0576	0.108	0.48	0.511	0.272	0.0837	0.911	0.794	0.469	0.571	0.45
EBC-1	1	1.1	0.986	0.965	0.88	0.747	0.848	0.939	0.836	0.518										
ChaGo-K-1	1.09	0.914	0.946	1.02	0.992						0.24	0.218	0.25	0.212	0.176	0.618	0.55	0.456	0.576	0.513
A549	1.01	0.956	0.747	1.04	0.825	0.695	0.682	0.946	0.785	0.774										
NCI-H1563	0.96	0.997	0.909	0.946	0.876	0.904	0.922	0.976	0.875	0.954						0.766	0.757	0.703	0.767	0.701
NCI-H1703	0.916	1.07	0.809	0.832	0.509	0.319	0.38	0.333	0.338	0.379										
NCI-H1299	1.02	1.07	1.03	1.04	1	1.07	1.03	1.01	1.01	1.06										
NCI-H522	1.13	0.865	0.916	0.997	0.974						0.544	0.518	0.582	0.56	0.593	0.823	0.711	0.729	0.771	0.698
NCI-H1648	0.963	0.918	0.697	0.849	0.661						0.531	0.486	0.595		0.542	0.272	0.368	0.261	0.285	0.26
NCI-H1623	1	0.961	0.846	0.949	0.817						0.409	0.357	0.425	0.433	0.434	0.409	0.463	0.45	0.402	0.386
